{"source": "patent US4767718A", "about": "“Fluorescent opioid reagents and methods of use thereof in the detection of opioid receptors” (Southern Illinois University Foundation, priority 1984, dated 1988)", "key": {"[1]": {"molecular_target": "T1, opioid receptor (rat brain synaptosomal plasma membranes) (Rattus norvegicus, UniProt P33535)", "T1 construct": "from rat brain synaptosomal plasma membranes; from tissue; host or cells: rat brain synaptosomal plasma membranes", "T1 sequence (P33535 whole entry)": "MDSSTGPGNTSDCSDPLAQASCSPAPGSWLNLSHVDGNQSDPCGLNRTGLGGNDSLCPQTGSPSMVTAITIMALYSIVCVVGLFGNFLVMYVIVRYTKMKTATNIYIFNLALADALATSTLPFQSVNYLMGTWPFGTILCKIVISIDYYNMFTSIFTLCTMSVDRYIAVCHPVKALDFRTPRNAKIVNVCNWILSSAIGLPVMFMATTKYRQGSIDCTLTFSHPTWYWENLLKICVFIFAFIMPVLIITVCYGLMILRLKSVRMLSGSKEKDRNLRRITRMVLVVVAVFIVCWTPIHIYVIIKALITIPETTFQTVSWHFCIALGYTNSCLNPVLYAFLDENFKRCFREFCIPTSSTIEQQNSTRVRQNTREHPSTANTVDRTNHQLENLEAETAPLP", "experiment": "displacement of ^3H-dihydromorphine (^3H-DHM) from rat brain synaptosomal plasma membranes", "format": "binding", "conditions": "for Hill coefficient: ^3H-DHM displacement; for binding activity for use in detection and quantification of receptor sites: synaptosomal membranes, in words"}, "[2]": {"molecular_target": "T2, opioid receptor sites, ^3H-DHM indicator ligand (Rattus norvegicus, UniProt P33535)", "T2 construct": "from rat brain synaptosomal plasma membranes; from tissue; host or cells: rat brain synaptosomal plasma membranes (inferred from the sister test; b86 says only 'a substrate')", "T2 sequence (P33535 whole entry)": "as above", "experiment": "site selectivity analysis (Terenius and Wahlstrom), displacement of labeled ^3H-DHM in presence of cold DALE", "format": "binding", "source_text": "(§1) In FIG. 1 it will be noted that compounds which displace the two indicator ligands differently provide a curve which is convex towards the axis of the labeled indicator ligand which is less favorably displaced."}, "[3]": {"molecular_target": "T3, opioid receptor sites, ^3H-DALE indicator ligand (Rattus norvegicus, UniProt P33533)", "T3 construct": "from rat brain synaptosomal plasma membranes; from tissue; host or cells: rat brain synaptosomal plasma membranes (inferred from the sister test; b86 says only 'a substrate')", "T3 sequence (P33533 whole entry)": "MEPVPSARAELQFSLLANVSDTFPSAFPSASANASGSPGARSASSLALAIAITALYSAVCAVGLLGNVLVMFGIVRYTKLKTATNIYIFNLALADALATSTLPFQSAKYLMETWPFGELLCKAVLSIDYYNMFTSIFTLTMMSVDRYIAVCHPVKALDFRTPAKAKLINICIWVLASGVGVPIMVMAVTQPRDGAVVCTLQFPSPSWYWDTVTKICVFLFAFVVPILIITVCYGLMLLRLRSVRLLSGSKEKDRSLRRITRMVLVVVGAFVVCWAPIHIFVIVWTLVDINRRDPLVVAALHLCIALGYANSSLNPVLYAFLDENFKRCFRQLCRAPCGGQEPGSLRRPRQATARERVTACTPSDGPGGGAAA", "experiment": "site selectivity analysis (Terenius and Wahlstrom), displacement of labeled ^3H-DALE in presence of cold DHM", "format": "binding", "source_text": "as §1"}, "[4]": {"test_system": "guinea pig ileum longitudinal muscle", "experiment": "electrically stimulated guinea pig ileum longitudinal muscle preparation", "conditions": "for persistence of antagonist effect on washing of ileum: after washing", "experimental": "6-FN was tested for activity on an electrically stimulated guinea pig ileum longitudinal muscle preparation. In this test, a specimen of guinea pig ileum was stretched between two wires in a nutrient solution (2.5 mil.) and stimulated supramaximally at 0.1 Hz. In the absence of opioid agonists and antagonists electrical stimulation of the muscle results in contraction."}, "[5]": {"experiment": "fluorescence and absorption properties", "format": "physicochemical", "conditions": "for emission maximum / excitation maximum: pH 7 phosphate buffer, 10^-6 M solution", "experimental": "The container was wrapped in aluminium foil. Thereafter, portions of ethyl alcohol and water were added to the reaction mixture."}, "[6]": {"experiment": "hygroscopicity of sample submitted for elemental analysis", "format": "physicochemical"}, "[7]": {"conditions": "determined graphically, rat brain synaptosomal plasma membranes"}}, "note": "“Also recorded” adds a separate entry of the source. Where two headings read alike, the source gives them in different places.", "data": [{"smiles": "C=CCN1CC[C@]23c4c5ccc(O)c4O[C@H]2C(=NNC(=S)Nc2ccc4c(c2)C(=O)OC42c4ccc(O)cc4Oc4cc(O)ccc42)CC[C@@]3(O)[C@H]1C5", "note": "[6-FN, 1-(N)-Fluoresceinyl Naloxone Thiosemicarbazone]", "values": [{"measurement": "Hill coefficient", "setting": "[1]", "result": 0.671}, {"measurement": "IC50", "setting": "[1]; [7]", "result": 20, "unit": "nM"}, {"measurement": "binding activity for use in detection and quantification of receptor sites", "setting": "[1]", "result": "sufficient binding activity"}, {"measurement": "IC50", "setting": "[2]", "result": 12, "unit": "nM"}, {"measurement": "site selectivity compared with naloxone (FIG. 1)", "setting": "[2]; percent bound DALE* versus percent bound DHM*, in words", "result": "show clearly the difference between 6-FN and naloxone with respect to site selectivity"}, {"measurement": "IC50", "setting": "[3]", "result": 17, "unit": "nM"}, {"measurement": "agonist activity of 6-FN", "setting": "[4]; 10^-6 M 6-FN, FIG. 2", "result": "slight agonist effect; also recorded: partial agonist activity"}, {"measurement": "persistence of antagonist effect on washing of ileum", "setting": "[4]", "result": "did not readily eliminate the antagonist effect"}, {"measurement": "antagonist effect with respect to normorphine", "setting": "[4]; final 6-FN concentration 10^-7 M, prior to normorphine", "result": "antagonist effect; also recorded: significantly inhibited the agonist effect of normorphine"}, {"measurement": "antagonist effect compared with inhibiting effect of naloxone", "setting": "[4]; inhibition of normorphine agonist effect", "result": "ten times less effective"}, {"measurement": "fluorescence polarization", "setting": "[5]", "result": 0.038}, {"measurement": "absorption maximum", "setting": "[5]; 10^-5 M solution, phosphate buffer", "result": 493, "unit": "nm"}, {"measurement": "absorbance A at absorption maximum", "setting": "[5]; 10^-5 M solution, phosphate buffer, 493 nm", "result": 0.410}, {"measurement": "quantum yield compared to free fluorescein", "setting": "[5]; 10^-9 M", "result": "about 67%"}, {"measurement": "emission maximum", "setting": "[5]", "result": 513, "unit": "nm"}, {"measurement": "excitation maximum", "setting": "[5]", "result": 493, "unit": "nm"}]}, {"smiles": "O=C1OC2(c3ccc(O)cc3Oc3cc(O)ccc32)c2ccc(NC(=S)NN=C3CC[C@@]4(O)[C@H]5Cc6ccc(O)c7c6[C@@]4(CCN5CC4CC4)[C@H]3O7)cc21", "note": "[6-FNX, 1-(N)-fluoresceinyl naltrexone thiosemicarbazone]", "values": [{"measurement": "IC50", "setting": "[1]", "result": 5, "unit": "nM"}, {"measurement": "Hill coefficient", "setting": "[1]", "result": 0.675}, {"measurement": "binding activity for use in detection and quantification of receptor sites", "setting": "[1]", "result": "sufficient binding activity"}]}, {"smiles": "CN1CC[C@]23c4c5ccc(O)c4O[C@H]2C(=NNC(=S)Nc2ccc4c(c2)C(=O)OC42c4ccc(O)cc4Oc4cc(O)ccc42)CC[C@@]3(O)[C@H]1C5", "note": "[6-FO, 1-(N)-Fluoresceinyl Oxymorphone thiosemicarbazone]", "values": [{"measurement": "Hill coefficient", "setting": "[1]", "result": 0.989}, {"measurement": "IC50", "setting": "[1]; [7]", "result": 20, "unit": "nM"}, {"measurement": "binding activity for use in detection and quantification of receptor sites", "setting": "[1]", "result": "sufficient binding activity"}, {"measurement": "hygroscopicity", "setting": "[6]", "result": "very hygroscopic"}]}, {"smiles": "C=CCN1CC[C@]23c4c5ccc(O)c4O[C@H]2C(=NNC(=S)Nc2ccc4c(c2)C(=O)OC42c4ccc(N(C)C)cc4Oc4cc(N(C)C)ccc42)CC[C@@]3(O)[C@H]1C5", "note": "[6-RN, 1-(N)-tetramethylrhodaminyl-B-naloxone Thiosemicarbazone]", "values": [{"measurement": "Hill coefficient", "setting": "[1]", "result": 1.09}, {"measurement": "binding activity for use in detection and quantification of receptor sites", "setting": "[1]", "result": "sufficient binding activity"}]}, {"smiles": "O=C1OC2(c3ccc(O)cc3Oc3cc(O)ccc32)c2ccccc21", "note": "[free fluorescein, fluorescein, reference compound]", "values": [{"measurement": "fluorescence polarization", "setting": "[5]", "result": 0.022}, {"measurement": "emission maximum", "setting": "[5]", "result": "510-511 nm"}, {"measurement": "excitation maximum", "setting": "[5]", "result": 493, "unit": "nm"}]}, {"smiles": "C=CCN1CC[C@]23c4c5ccc(O)c4O[C@H]2C(=O)CC[C@@]3(O)[C@H]1C5", "note": "[naloxone, reference compound]", "values": [{"measurement": "reversal of 6-FN partial agonist activity by naloxone", "setting": "[4]; 10^-7 M naloxone versus 10^-6 M 6-FN", "result": "reversible"}, {"measurement": "antagonist effect of naloxone with respect to 6-FN", "setting": "[4]; FIG. 2 legend", "result": "antagonist effect"}, {"measurement": "persistence of antagonist effect on washing of ileum", "setting": "[4]", "result": "similar"}]}, {"smiles": "Oc1ccc2c3c1O[C@H]1[C@@H](O)C=C[C@H]4[C@@H](C2)NCC[C@@]341", "note": "[normorphine, reference compound]", "values": [{"measurement": "agonist effect, inhibition of contraction of ileum", "setting": "[4]; normorphine 25 microliters, 10^-7 M", "result": "agonist effect; also recorded: substantially inhibited contraction of the muscle"}]}]}
